Data as given in patent publication US20250213560A1, “NITROGEN-CONTAINING HETEROCYCLIC COMPOUNDS HAVING PHENYL GROUP AND USES THEREOF” (BNH RESEARCH CO., LTD., priority 2022, published 2025).

Assays:
[1] = test system: BDNF; test: BDNF expression in SH-SY5Y cells; assay type: cell-based, human; details: 1 μM, application for 6 and 24 hours
Protocol: (§1) Human undifferentiated neuroblastoma cell line SH-SY5Y and human embryonic kidney cell line (HEK)-293T were purchased from Korean Cell Line Bank (Korea) and Takara (Japan), respectively. Cells were grown in HyClone Minimal Essential Medium (MEM) and Dulbecco's Modified Eagle Medium (DMEM), respectively, supplemented with 10% (v/v) fetal bovine serum (FBS), penicillin (100 U/mL), and streptomycin ([…]). Cells were maintained in a humidified atmosphere of 95% air and 5% CO2 at 37° C. Cells were passaged 10 times at maximum. Cells were dissociated using 0.05% trypsin-EDTA solution and the cells were seeded in new culture dishes for maintenance.
(§2) RT-PCR was used to measure the amount of BDNF and GluN2B in response to compounds of the present disclosure. 293T cells were dissociated using 0.05% Trypsin-EDTA solution and seeded in 24 well or 6 well dishes for RNA work. After incubation at 37° C. in a humidified atmosphere with 5% CO2 for 24 hours, the culture medium was replaced by a medium containing a series of concentrations of tested compounds diluted with the DMEM without FBS. Time course experiments were performed. The same volume of DMSO was used for negative control.
(§3) Similarly, BnH12003 (1 μM) augmented BDNF and GluN2B expression by application for 6 and 24 hours in SH-SY5Y cells (FIGS. 11A and 11B).

[2] = test system: GluN2B; test: GluN2B expression in SH-SY5Y cells; assay type: cell-based, human; details: 1 μM, application for 6 and 24 hours
Protocol: as §1, §2, §3

[3] = test system: SH-SY5Y cells; test: Cytotoxicity test (CCK-8 cell viability) in SH-SY5Y cells; assay type: cell-based, human; details: SH-SY5Y, 0, 0.1, 1, 10, 100 μM, 24 hours
Protocol: as §1, with “maintenance. […]” for “maintenance.”
The time of co-incubation was 24 hours and six replicates were made for each measurement. Finally, 10 μL of CCK-8 reagent (Dojindo Laboratories, Rockville, MD) was added to each well, and after incubation at 37° C. for 3 minutes, the OD at 450 nm was measured using a multifunction microplate reader (Tecan Infinite M200 Pro). These measurements were compared to that of a control and expressed as a percentage of the control to calculate cell viability. The IC50 value was calculated using SPSS software. To do this, the absorbance of the blank wells with only growth medium is subtracted from the values or the wells with cells. […]
The cytotoxicity of the compound was evaluated by treating cells with BnH12003 and measuring cell viability.

[4] = test system: mouse barrel cortex (layer 4); test: Ex vivo synaptic plasticity (TC EPSC potency, GABA/AMPA ratio) in barrel cortex after in vivo administration; details: C57BL/6J mice
Text: Eight weeks old male C57BL/6J mice were anesthetized with isoflurane during surgery. The mice were then be placed in a stereotaxic frame (RWD Life Science, China). The parietal and the frontal bones were exposed by a sagittal incision of the scalp at the midline from the level of the eyes to the occipital protuberance. A small burr hole was drilled after exposing the skull. The injection cannula was placed at the following coordinates: (Mouse: Bregma-3.30, lateral-1.50, and ventral 0.7 mm). Sterile saline solution (+/−a compound of the present disclosure) was perfused at a constant flow rate of […] through the injection cannula using a mini-Os pump (DURECT Corporation ALZET Osmotic Pumps, CA). Implantation was done in layer 4 of the barrel cortex ipsilateral. To estimate extent of the diffusion of the injected compound in layer 4 barrel cortex during pump injection, methylene blue was first injected to stain the diffusion area. On average methylene blue diffused to 2000.0 μm away from the injection site (the total area of the barrel cortex region is about 1500 μm). Based on this analysis, the present inventors recorded from barrel cortex area.
The compound was diluted to 25 mg/kg using DMSO: PEG400: Saline (5:55:40). The compound was administered intraperitoneal at 10:00 a.m. daily (i.p. volume was 200 ul) for about 11 to 12 days. Control group was also administered by i.p. injection in the same manner using the vehicle (DMSO: PEG400: Saline (5:55:40)). 5 mice were used for the compound administration group and the control group, respectively.
For TC or hippocampus slice preparation, 9 to 10 weeks-old male C57BL/6J mice were anesthetized with isoflurane. Then, the brain was rapidly cooled via transcardial perfusion with ice-cold sucrose-artificial cerebrospinal fluid (aCSF). The brain was removed and placed in ice-cold sucrose aCSF. Paracoronal slices were prepared at an angle of 50° relative to the midline on a ramp at an angle of 10°. Then, slices were incubated in aCSF at 35° C. for 30 minutes to recover. […]
Whole cell recordings were made using a multiclamp 700A (Molecular devices, Sunnyvale, CA)digitized at 10 kHz and filtered at 2 kHz. Input resistance and series resistance were monitored continuously during recordings, as previously described (see Isaac, Crair, Nicoll, & Malenka, 1997, Silent synapses during development of thalamocortical inputs, DOI: 10.1016/s0896-6273 (00) 80267-6).
For the minimal stimulation protocol (Potency), VB thalamic stimulation intensity was adjusted to find the lowest intensity that elicited a mixture of synaptic responses and failures. Failure rate was calculated as the number of failures/total number of trials. […]

[5] = Os pump, 3 μM continuously for 2 weeks, barrel cortex layer 4
[6] = intraperitoneal 25 mg/kg once a day for about 11 or 12 days

C[C@H]1CC[C@@H](C(=O)O)CN1C(=O)Cc1ccc(-c2cncnc2)cc1 [BnH12003, (3R,6S)-6-methyl-1-(2-(4-(pyrimidin-5-yl)phenyl)acetyl) piperidine-3-carboxylic acid]
BDNF expression [1]: augmented
GluN2B expression [2]: augmented
cell viability [3]: no significant change in cell viability
GABA/AMPA ratio (balance of excitation/inhibition) [4, 5]: balance of excitation/inhibition was maintained
excitatory TC synaptic potency (TC potency) [4, 5]: significantly increased
GABA/AMPA ratio (balance of excitation/inhibition) [4, 6]: maintaining the balance of excitation/inhibition
TC synaptic potency in the sensory cortex [4, 6]: increase TC synaptic potency
